Measured values from patent US20220144812A1, “QUINOLINE DERIVATIVES AND THEIR USE FOR THE TREATMENT OF CANCER” (Epizyme, Inc., priority 2019, published 2022).
Read-outs that look alike come from different tables or passages of the source.

Experiments:
CREBBP (1084-1701) = target: T1, CREBBP (1084-1701) (Homo sapiens, UniProt Q92793); assay: Biochemical assay for CREBBP (1084-1701), SAMDI; settings: read-out: CREBBP Biochemistry IC50
T1 construct: measured in the following biochemical assay using CREBBP (1084-1701); purchased
T1 sequence (Q92793 1084-1701): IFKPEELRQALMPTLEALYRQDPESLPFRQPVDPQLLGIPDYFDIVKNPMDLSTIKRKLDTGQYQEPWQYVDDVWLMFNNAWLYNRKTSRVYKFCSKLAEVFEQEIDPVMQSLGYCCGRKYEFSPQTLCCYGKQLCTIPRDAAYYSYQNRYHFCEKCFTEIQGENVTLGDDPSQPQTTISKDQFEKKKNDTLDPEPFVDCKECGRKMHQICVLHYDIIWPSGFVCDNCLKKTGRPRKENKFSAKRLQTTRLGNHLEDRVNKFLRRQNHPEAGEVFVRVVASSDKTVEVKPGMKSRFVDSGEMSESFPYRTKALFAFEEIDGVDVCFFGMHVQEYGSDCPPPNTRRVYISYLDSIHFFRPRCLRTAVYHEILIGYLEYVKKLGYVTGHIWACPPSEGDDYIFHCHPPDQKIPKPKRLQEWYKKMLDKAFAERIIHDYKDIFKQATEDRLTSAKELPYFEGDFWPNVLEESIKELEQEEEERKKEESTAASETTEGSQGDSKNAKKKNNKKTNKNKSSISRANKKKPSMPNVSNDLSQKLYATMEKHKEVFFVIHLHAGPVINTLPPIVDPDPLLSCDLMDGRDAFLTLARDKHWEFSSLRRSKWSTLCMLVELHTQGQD
In short: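 CREBBP (1084-1701) preincubated with compound 30 min at RT, then substrate mix (biotin-H3 11-25 K14R/K23R peptide, acetyl-CoA) added for 30 min at RT. Reaction stopped with formic acid, neutralised with sodium bicarbonate. Peptide acetylation read by SAMDI mass spectrometry to derive IC50.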

647V cells = assay: High throughput proliferation (HTP) assay; assay type: cell-based; settings: Homo sapiens, 647-V, read-out: CREBBP HTP IC50
In short: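 Exponentially growing 647V cells in DMEM with 15% FBS were treated in triplicate with increasing compound concentrations at 37° C, 5% CO2. Viable cell number was read by CellTiter-Glo luminescence on day 7; IC50 in micromolar.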

EP300 (P300(1048-1664)) = target: T2, EP300 (P300(1048-1664)) (Homo sapiens, UniProt Q09472); assay: Biochemical assay for EP300, SAMDI; settings: read-out: EP300 Biochemistry IC50
T2 construct: P300(1048-1664)
T2 sequence (Q09472 1048-1664): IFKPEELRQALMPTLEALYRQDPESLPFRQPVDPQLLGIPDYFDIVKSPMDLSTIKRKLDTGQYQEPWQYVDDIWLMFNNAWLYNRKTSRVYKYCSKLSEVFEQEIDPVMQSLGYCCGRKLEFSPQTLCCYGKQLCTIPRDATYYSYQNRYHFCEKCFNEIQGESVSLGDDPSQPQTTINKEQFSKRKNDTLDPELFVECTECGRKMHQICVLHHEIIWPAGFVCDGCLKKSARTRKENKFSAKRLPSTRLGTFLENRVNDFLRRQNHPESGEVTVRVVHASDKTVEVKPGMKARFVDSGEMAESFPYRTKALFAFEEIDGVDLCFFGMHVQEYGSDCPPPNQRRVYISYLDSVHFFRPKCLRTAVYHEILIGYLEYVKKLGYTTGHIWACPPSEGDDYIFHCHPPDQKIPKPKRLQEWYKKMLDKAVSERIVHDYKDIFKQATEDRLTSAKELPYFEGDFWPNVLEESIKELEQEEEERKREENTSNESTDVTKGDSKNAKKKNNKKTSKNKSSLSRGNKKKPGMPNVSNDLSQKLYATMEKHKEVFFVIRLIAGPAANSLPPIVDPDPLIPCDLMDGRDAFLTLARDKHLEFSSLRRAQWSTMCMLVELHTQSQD
Excerpt: The following example describes materials and methods relating to a biochemical assay for EP300. IC50 values (micromolar (μM)) are summarized in Table 1, Table 2, and Table 3 under the column labeled: “EP300 Biochemistry IC50 (micromolar).”

[1] = system: H3K18Ac in HB-CLS-2 cells; assay: H3K18AC in-cell western (ICW) assay; assay type: cell-based; settings: read-out: CREBBP ICW IC50
In short: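 HB-CLS-2 cells seeded 16–24 hours before 2 hr compound treatment at 37° C, 5% CO2, then methanol-fixed. H3K18Ac detected with rabbit monoclonal primary (overnight, 4° C) and 800CW anti-rabbit secondary; DRAQ5 stained DNA. Plates imaged at 700 and 800 nm for integrated intensity; IC50 in μM.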

[2] = Peptide #233, Acetyl-CoA, SAMDI mass spectrometry
[3] = 168 h, 647V cells, day 7, CellTiter-Glo
[4] = P300(1048-1664), Peptide #233, Ac-CoA, SAMDI mass spectrometry
[5] = 2 h, H3K18Ac in HB-CLS-2 cells, 2 hrs compound incubation

Structure (SMILES)	IC50 (CREBBP (1084-1701); SAMDI) [nM]	IC50 (647V cells; high throughput proliferation) [nM]	IC50 (EP300 (P300(1048-1664)); EP300, SAMDI) [nM]	IC50 ([1]; H3K18Ac in-cell western) [nM]	IC50 (CREBBP (1084-1701); [2]) [nM]	IC50 (647V cells; [3]) [nM]	IC50 (EP300 (P300(1048-1664)); [4]) [nM]	IC50 [1, 5] [nM]
CCn1ncc(CN(C)C(=O)c2nc(-c3cnc4n[nH]c(N)c4c3)nc3ccc(Cl)cc23)c1C [Compound 621]	216	391	397	222				
CCc1noc(C(C)N(C)C(=O)c2nc(-c3cc4c(NC)[nH]nc4cc3C)nc3ccc(Cl)cc23)c1C (centres unmarked) [Compound 622]	107	2300	383	1320				
CCn1ncc(CN(C)C(=O)c2nc(-c3cc(C(F)(F)F)c4[nH]nc(NC)c4c3)nc3ccc(Cl)cc23)c1C [Compound 623]	43.9	711	28.3	230				
CCn1ncc(CN(C)C(=O)c2nc(-c3cc4c(NC)noc4cc3C)nc3ccc(Cl)cc23)c1C [Compound 624]	18.3	284	9.2	113				
CCn1ncc(CN(C)C(=O)c2cc(-c3ccc(NCCS(C)(=O)=O)c(C)n3)nc3ccc(Cl)cc23)c1C [Compound 625]	19.2	163	11.3	114				
Cc1nc(-c2cc(C(=O)N(C)Cc3cn(C)c(CC(F)(F)F)n3)c3cc(Cl)ccc3n2)ccc1NCCN(C)C [Compound 626]	3310	5780	4240	3210				
CCc1ncc(CN(C)C(=O)c2cc(-c3cc(C(=O)NC)n(C)n3)nc3ccc(COC)cc23)n1C [Compound 627]	49.6	506	15.6	271				
CCn1ncc(CN(C)C(=O)c2cc(-c3ccc(NCC4CN(C)CCO4)c(C)n3)nc3ccc(Cl)cc23)c1C (centres unmarked) [Compound 628]	3630	997	1730	3300				
CCc1ncc(CN(C)C(=O)c2cc(-c3cc(-c4ncc[nH]4)n(C)n3)nc3ccc(COC)cc23)n1C [Compound 629]	34	292	16.8	256				
CCc1ncc(CN(C)C(=O)c2nc(-c3cc(-c4ncc[nH]4)n(C)n3)nc3ccc(Cl)cc23)n1C [Compound 631]					16.7	194	8.8	125
CCn1ncc(CN(C)C(=O)c2nc(-c3cnc4n[nH]c(NC)c4c3)nc3ccc(Cl)cc23)c1C [Compound 632]					3.2	105	4.6	42.1
CCc1ncc(CN(C)C(=O)c2nc(-c3cc(C(=O)NC)n(C)n3)nc3ccc(C4CC4)cc23)n1C [Compound 633]					34.3	369	14.6	227
CCn1ncc(CN(C)C(=O)c2cc(-c3cc(C(=O)NC)n(C)n3)nc3ccc(C4CC4)cc23)c1C [Compound 635]					24.2	143	6.6	52.6
CCc1ncc(CN(C)C(=O)c2cc(-c3cc(C(=O)NC)n(C)n3)nc3ccc(C4CC4)cc23)n1C [Compound 636]					24.8	132	5.6	65.4
CCc1ncc(CN(C)C(=O)c2cc(-c3ccc(NCCN(C)C)c(C)n3)nc3ccc(COC)cc23)n1C [Compound 637]					98.7	295	34.4	420
CCn1ncc(CN(C)C(=O)c2nc(-c3cc(C(=O)NC)n(C)n3)nc3ccc(C4CC4)cc23)c1C [Compound 638]					116	357	66.2	124
CCn1ncc(C(N(C)C(=O)c2cc(-c3ccc(NCCN(C)C)c(C)n3)nc3ccc(Cl)cc23)C(F)(F)F)c1C (centres unmarked) [Compound 639]					50000	2170	50000	20000
